# Test results published in patent publication US11497752B2, “Compounds and uses thereof” (Foghorn Therapeutics Inc., priority 2018, dated 2022).
# pIC50: −log10 of the molar value.
# How the values were obtained:
# BRM = BRM (Homo sapiens, UniProt P51531); assay: ATPase catalytic activity of BRM (ADP-Glo in vitro biochemical assay)
# BRG-1 = BRG-1 (Homo sapiens, UniProt P51532); assay: ATPase catalytic activity of BRG-1 (ADP-Glo in vitro biochemical assay)
# Sequence of BRG-1 (P51532 whole entry): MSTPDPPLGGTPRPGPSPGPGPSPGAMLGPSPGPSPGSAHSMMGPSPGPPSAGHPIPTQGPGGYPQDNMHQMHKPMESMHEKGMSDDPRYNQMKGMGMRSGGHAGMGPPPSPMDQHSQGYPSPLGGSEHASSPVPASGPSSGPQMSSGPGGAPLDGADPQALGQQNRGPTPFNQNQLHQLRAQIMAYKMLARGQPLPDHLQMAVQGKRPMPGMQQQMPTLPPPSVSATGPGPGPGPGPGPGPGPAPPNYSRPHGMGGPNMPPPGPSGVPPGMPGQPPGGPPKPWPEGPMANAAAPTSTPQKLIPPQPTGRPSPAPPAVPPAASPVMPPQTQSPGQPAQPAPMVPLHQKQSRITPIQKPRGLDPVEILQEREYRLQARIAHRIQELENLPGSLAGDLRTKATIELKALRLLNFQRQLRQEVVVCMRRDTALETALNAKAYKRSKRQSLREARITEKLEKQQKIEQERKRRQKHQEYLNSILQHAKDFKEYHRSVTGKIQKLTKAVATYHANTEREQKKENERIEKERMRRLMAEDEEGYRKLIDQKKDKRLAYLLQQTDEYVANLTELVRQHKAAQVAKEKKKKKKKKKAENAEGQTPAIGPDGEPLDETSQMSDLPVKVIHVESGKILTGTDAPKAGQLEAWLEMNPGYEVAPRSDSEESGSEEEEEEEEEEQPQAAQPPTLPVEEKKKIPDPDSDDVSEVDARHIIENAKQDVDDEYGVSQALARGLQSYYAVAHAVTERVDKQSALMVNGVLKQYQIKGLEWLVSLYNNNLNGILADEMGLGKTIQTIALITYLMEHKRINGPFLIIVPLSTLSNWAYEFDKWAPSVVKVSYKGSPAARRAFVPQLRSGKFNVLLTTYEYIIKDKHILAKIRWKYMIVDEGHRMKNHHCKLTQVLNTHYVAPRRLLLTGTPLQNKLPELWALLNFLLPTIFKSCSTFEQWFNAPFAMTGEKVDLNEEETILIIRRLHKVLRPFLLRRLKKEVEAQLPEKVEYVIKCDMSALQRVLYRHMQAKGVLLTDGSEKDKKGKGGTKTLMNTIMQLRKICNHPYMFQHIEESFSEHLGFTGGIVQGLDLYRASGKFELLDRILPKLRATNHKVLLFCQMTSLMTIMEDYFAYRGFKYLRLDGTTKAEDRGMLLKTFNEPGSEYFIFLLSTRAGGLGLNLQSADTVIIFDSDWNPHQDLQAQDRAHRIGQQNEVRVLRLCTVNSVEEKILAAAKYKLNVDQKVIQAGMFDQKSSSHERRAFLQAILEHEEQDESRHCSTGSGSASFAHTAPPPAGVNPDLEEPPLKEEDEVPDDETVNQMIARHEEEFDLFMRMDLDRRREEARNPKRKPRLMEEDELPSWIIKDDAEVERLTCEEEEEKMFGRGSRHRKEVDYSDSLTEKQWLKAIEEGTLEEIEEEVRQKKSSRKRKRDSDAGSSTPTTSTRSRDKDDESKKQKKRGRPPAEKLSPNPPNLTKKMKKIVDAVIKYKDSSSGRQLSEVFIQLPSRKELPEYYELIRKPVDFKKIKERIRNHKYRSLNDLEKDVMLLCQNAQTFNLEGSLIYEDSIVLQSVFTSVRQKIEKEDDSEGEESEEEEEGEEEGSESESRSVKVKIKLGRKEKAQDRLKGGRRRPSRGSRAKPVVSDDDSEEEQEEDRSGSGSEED
# Sequence of BRM (P51531 whole entry): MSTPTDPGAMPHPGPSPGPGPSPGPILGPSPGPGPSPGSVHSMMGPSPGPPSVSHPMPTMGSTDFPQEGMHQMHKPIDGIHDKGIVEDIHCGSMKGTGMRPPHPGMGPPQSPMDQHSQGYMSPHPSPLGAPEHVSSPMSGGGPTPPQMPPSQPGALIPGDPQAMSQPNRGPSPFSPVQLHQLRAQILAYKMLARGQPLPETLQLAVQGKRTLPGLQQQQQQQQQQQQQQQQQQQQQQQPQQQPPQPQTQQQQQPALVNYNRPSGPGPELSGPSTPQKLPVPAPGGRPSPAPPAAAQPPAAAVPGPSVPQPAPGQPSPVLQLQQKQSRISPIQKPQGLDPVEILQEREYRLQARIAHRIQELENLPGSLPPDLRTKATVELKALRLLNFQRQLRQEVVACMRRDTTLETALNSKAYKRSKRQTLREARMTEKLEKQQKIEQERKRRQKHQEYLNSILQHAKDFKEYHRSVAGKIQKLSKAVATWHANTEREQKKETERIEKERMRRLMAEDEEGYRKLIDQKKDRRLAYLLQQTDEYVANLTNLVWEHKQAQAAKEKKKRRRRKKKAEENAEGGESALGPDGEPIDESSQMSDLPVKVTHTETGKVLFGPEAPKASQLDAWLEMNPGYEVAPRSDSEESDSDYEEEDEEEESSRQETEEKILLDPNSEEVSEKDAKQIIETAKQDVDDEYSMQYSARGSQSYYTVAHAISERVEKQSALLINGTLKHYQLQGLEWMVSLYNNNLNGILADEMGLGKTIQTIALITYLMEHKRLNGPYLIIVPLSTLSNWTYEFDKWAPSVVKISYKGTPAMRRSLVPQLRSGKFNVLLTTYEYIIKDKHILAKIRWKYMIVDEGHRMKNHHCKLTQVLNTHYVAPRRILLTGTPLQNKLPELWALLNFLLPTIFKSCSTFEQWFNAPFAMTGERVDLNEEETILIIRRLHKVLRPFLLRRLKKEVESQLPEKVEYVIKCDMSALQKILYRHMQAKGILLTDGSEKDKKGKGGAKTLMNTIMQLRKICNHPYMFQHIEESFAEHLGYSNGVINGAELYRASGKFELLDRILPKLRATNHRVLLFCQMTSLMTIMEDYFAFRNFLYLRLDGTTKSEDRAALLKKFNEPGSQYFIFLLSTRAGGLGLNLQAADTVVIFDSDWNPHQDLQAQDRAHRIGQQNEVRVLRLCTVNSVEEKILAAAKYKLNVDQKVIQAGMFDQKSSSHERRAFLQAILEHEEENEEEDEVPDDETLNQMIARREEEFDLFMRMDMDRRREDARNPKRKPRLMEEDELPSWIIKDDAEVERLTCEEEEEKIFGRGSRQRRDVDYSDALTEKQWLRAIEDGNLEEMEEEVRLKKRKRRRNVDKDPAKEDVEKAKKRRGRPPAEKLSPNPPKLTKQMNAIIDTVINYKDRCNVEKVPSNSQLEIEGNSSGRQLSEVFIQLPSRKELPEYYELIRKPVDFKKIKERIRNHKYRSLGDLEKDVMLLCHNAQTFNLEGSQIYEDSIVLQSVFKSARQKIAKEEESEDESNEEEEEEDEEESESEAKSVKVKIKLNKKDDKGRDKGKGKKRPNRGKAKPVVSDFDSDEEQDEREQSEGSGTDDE
SMILES,pIC50 (BRM),BRM Max % Inhibition (BRM; Table 6),pIC50 (BRG-1),BRG1 Max % Inhibition (BRG-1; Table 6),BRM Max % Inhibition (BRM; Table 5),BRG1 Max % Inhibition (BRG-1; Table 5)
"Nc1ccc(C(=O)NCC(=O)Nc2nc(-c3cccc(-c4ccn(CC(F)(F)F)n4)c3)cs2)cc1 [Compound 151, 4-amino-N-(2-oxo-2-((4-(3-(1-(2,2,2-trifluoroethyl)-1H-pyrazol-3-yl)phenyl)thiazol-2-yl)amino)ethyl)benzamide]",6.00 to 7.00,>80%,6.00 to 7.00,>80%,,
"CNC(=O)c1ccc(C(=O)N[C@@H](CCSC)C(=O)Nc2nc(-c3ccccc3)cs2)cc1 [Compound 72, N4-methyl-N1-[(1S)-3-methylsulfanyl-1-[(4-phenylthiazol-2-yl)carbamoyl]propyl]terephthalamide]",< 5.00,,< 5.00,,>60%,>50%
"CC(C)(N)Cn1ccc(-c2cccc(-c3csc(NC(=O)CNC(=O)c4ccc(N)cc4)n3)c2)n1 [Compound 241, 4-amino-N-[2-[[4-[3-[1-(2-amino-2-methyl-propyl)pyrazol-3-yl]phenyl]thiazol-2-yl]amino]-2-oxo-ethyl]benzamide]",6.00 to 7.00,>90%,6.00 to 7.00,>90%,,
"Nc1ccc(C(=O)NCC(=O)Nc2nc(-c3cccc(-c4ccnc(CO)c4)c3)cs2)cc1 [Compound 165, 4-amino-N-(2-((4-(3-(2-(hydroxymethyl)pyridin-4-yl)phenyl)thiazol-2-yl)amino)-2-oxoethyl)benzamide]",> 7.00,>95%,> 7.00,>95%,,
"CN(C)S(=O)(=O)c1cccc(C(=O)NCC(=O)Nc2nc(-c3ccc(CN)cc3)cs2)c1 [Compound 22, N-[2-[[4-[4-(aminomethyl)phenyl]thiazol-2-yl]amino]-2-oxo-ethyl]-3-(dimethylsulfamoyl)benzamide]",< 5.00,,< 5.00,,>70%,>60%
"Nc1ccc(C(=O)NCC(=O)Nc2nc(-c3cccc(-c4ccnc(CC(=O)O)c4)c3)cs2)cc1 [Compound 224, [2-[4-[3-[2-[[2-[(4-aminobenzoyl)amino]acetyl]amino]thiazol-4-yl]phenyl]-2-pyridyl]acetyl]oxysodium]",> 7.00,>95%,> 7.00,>90%,,
"CSCC[C@H](NC(=O)c1ccc(N)cc1)C(=O)Nc1nc(-c2cccc(-c3ccnc(C)c3)c2)cs1 [Compound 214, (S)-4-amino-N-(1-((4-(3-(2-methylpyridin-4-yl)phenyl)thiazol-2-yl)amino)-4-(methylthio)-1-oxobutan-2-yl)benzamide]",> 7.00,>95%,> 7.00,>95%,,
"Nc1ccc(C(=O)NCC(=O)Nc2nc(-c3cccc(-c4ccn(CC(=O)O)n4)c3)cs2)cc1 [Compound 210, 2-[3-[3-[2-[[2-[(4-aminobenzoyl)amino]acetyl]amino]thiazol-4-yl]phenyl]pyrazol-1-yl]acetic acid]",6.00 to 7.00,>95%,6.00 to 7.00,>80%,,
"Nc1ccc(C(=O)NCC(=O)Nc2nc(-c3ccc4cc[nH]c(=O)c4c3)cs2)cc1 [Compound 147, 4-amino-N-(2-oxo-2-((4-(1-oxo-1,2-dihydroisoquinolin-7-yl)thiazol-2-yl)amino)ethyl)benzamide]",> 7.00,>95%,> 7.00,>95%,,
"Nc1ccc(C(=O)NCC(=O)Nc2nc(-c3cccc(-c4ccnc(N5CCNCC5)c4)c3)cs2)cc1 [Compound 159, 4-amino-N-(2-oxo-2-((4-(3-(2-(piperazin-1-yl)pyridin-4-yl)phenyl)thiazol-2-yl)amino)ethyl)benzamide]",6.00 to 7.00,>90%,6.00 to 7.00,>95%,,
"CSCC[C@H](NC(=O)c1cccc(C(C)(C)O)c1)C(=O)Nc1nc(-c2ccccc2)cs1 [Compound 55, (S)-3-(2-hydroxypropan-2-yl)-N-(4-(methylthio)-1-oxo-1-((4-phenylthiazol-2-yl)amino)butan-2-yl)benzamide]",5.00 to 6.00,,5.00 to 6.00,,>90%,>80%
"COC(=O)c1cccc(-c2csc(NC(=O)CNC(=O)c3cccc(S(=O)(=O)N(C)C)c3)n2)c1 [Compound 9, methyl 3-[2-[[2-[[3-(dimethylsulfamoyl)benzoyl]amino]acetyl]amino]thiazol-4-yl]benzoate]",> 6.00,,> 6.00,,>90%,>60%
"CC(=O)NCc1ccc(-c2csc(NC(=O)CNC(=O)c3cccc(S(=O)(=O)N(C)C)c3)n2)cc1 [Compound 11, N-[2-[[4-[4-(acetamidomethyl)phenyl]thiazol-2-yl]amino]-2-oxo-ethyl]-3-(dimethylsulfamoyl)benzamide]",5.00 to 6.00,,< 5.00,,>80%,>70%
"CSCC[C@H](NC(=O)c1ccc2[nH]cnc2c1)C(=O)Nc1nc(-c2ccccc2)cs1 [Compound 66, (S)—N-(4-(methylthio)-1-oxo-1-((4-phenylthiazol-2-yl)amino)butan-2-yl)-1H-benzo[d]imidazole-5-carboxamide]",< 5.00,,< 5.00,,>70%,>50%
"CC(C)(N)c1cc(-c2cccc(-c3csc(NC(=O)CNC(=O)c4ccc(N)cc4)n3)c2)ccn1 [Compound 211, 4-amino-N-[2-[[4-[3-[2-(1-amino-1-methyl-ethyl)-4-pyridyl]phenyl]thiazol-2-yl]amino]-2-oxo-ethyl]benzamide]",6.00 to 7.00,>95%,6.00 to 7.00,>90%,,
"CNC(=O)Cc1cc(-c2cccc(-c3csc(NC(=O)CNC(=O)c4ccc(N)cc4)n3)c2)ccn1 [Compound 205, 4-amino-N-[2-[[4-[3-[2-[2-(methylamino)-2-oxo-ethyl]-4-pyridyl]phenyl]thiazol-2-yl]amino]-2-oxo-ethyl]benzamide]",> 7.00,>95%,> 7.00,>95%,,
"Cn1ncc2ccc(-c3csc(NC(=O)CNC(=O)c4ccc(N)cc4)n3)cc2c1=O [Compound 150, 4-amino-N-(2-((4-(3-methyl-4-oxo-3,4-dihydrophthalazin-6-yl)thiazol-2-yl)amino)-2-oxoethyl)benzamide]",> 7.00,>95%,> 7.00,>90%,,
"CSCC[C@H](NC(=O)c1ccc(N)cc1)C(=O)Nc1nc(-c2cccc(-c3cccc(CN)c3)c2)cs1 [Compound 237, 4-amino-N-[(1S)-1-[[4-[3-[3-(aminomethyl)phenyl]phenyl]thiazol-2-yl]carbamoyl]-3-methylsulfanyl-propyl]benzamide]",6.00 to 7.00,>90%,6.00 to 7.00,>90%,,
"Cn1cnc2ccc(-c3csc(NC(=O)CNC(=O)c4ccc(N)cc4)n3)cc2c1=O [Compound 148, 4-amino-N-(2-((4-(3-methyl-4-oxo-3,4-dihydroquinazolin-6-yl)thiazol-2-yl)amino)-2-oxoethyl)benzamide]",> 7.00,>95%,> 7.00,>95%,,
"CSCC[C@H](NC(=O)c1ccc(N)cc1)C(=O)Nc1nc(-c2cccc(-c3nnco3)c2)cs1 [Compound 128, (S)-N-(1-((4-(3-(1,3,4-oxadiazol-2-yl)phenyl)thiazol-2-yl)amino)-4-(methylthio)-1-oxobutan-2-yl)-4-aminobenzamide]",> 7.00,>95%,> 7.00,>95%,,
"Nc1ccc(C(=O)NCC(=O)Nc2nc(-c3cccc(-c4cccc(F)c4)c3)cs2)cc1 [Compound 152, 4-amino-N-(2-((4-(3′-fluoro-[1,1′-biphenyl]-3-yl)thiazol-2-yl)amino)-2-oxoethyl)benzamide]",6.00 to 7.00,>90%,6.00 to 7.00,>80%,,
"CSCC[C@H](NC(=O)c1ccc(CNC(C)=O)cc1)C(=O)Nc1nc(-c2ccccc2)cs1 [Compound 74, 4-(acetamidomethyl)-N-[3-methylsulfanyl-1-[(4-phenylthiazol-2-yl)carbamoyl]propyl]benzamide]",< 5.00,,< 5.00,,>50%,>30%
"CN1CCN(c2cc(-c3cccc(-c4csc(NC(=O)CNC(=O)c5ccc(N)cc5)n4)c3)ccn2)CC1 [Compound 190, 4-amino-N-[2-[[4-[3-[2-(4-methylpiperazin-1-yl)-4-pyridyl]phenyl]thiazol-2-yl]amino]-2-oxo-ethyl]benzamide]",6.00 to 7.00,>80%,6.00 to 7.00,>80%,,
"Nc1ccc(C(=O)NCC(=O)Nc2nc(-c3cccc(-c4ccccc4F)c3)cs2)cc1 [Compound 142, 4-amino-N-(2-((4-(2′-fluoro-[1,1′-biphenyl]-3-yl)thiazol-2-yl)\amino)-2-oxoethyl)benzamide]",6.00 to 7.00,>90%,6.00 to 7.00,>90%,,
"CN(C)C(=O)CN(C)c1cc(-c2cccc(-c3csc(NC(=O)CNC(=O)c4ccc(N)cc4)n3)c2)ccn1 [Compound 206, 4-amino-N-[2-[[4-[3-[2-[[2-(dimethylamino)-2-oxo-ethyl]-methyl-amino]-4-pyridyl]phenyl]thiazol-2-yl]amino]-2-oxo-ethyl]benzamide]",6.00 to 7.00,>95%,6.00 to 7.00,>95%,,
"Nc1ccc(C(=O)NCC(=O)Nc2nc(-c3cccc(N4CCC[C@@H](O)C4)c3)cs2)cc1 [Compound 234, 4-amino-N-[2-[[4-[3-[(3R)-3-hydroxy-1-piperidyl]phenyl]thiazol-2-yl]amino]-2-oxo-ethyl]benzamide]",6.00 to 7.00,>90%,6.00 to 7.00,>90%,,
